What was measured:
BCMA expression on MM.1S [1] = experiment: BCMA expression on MM.1S by flow cytometry after ATRA treatment; assay type: cell-based, human
Description: (§1) Flow cytometric analysis of BCMA-expression on MM.1S, OPM-2 and NCI-H929 cell lines that had been cultured in the absence or presence of 50 nM ATRA for 72 hours. […] 7-AAD was used to exclude dead cells from analysis.

BCMA expression on OPM-2 = BCMA expression on OPM-2 by flow cytometry after ATRA treatment; assay type: cell-based, human
Description: as §1

[2] = tested on: BCMA surface molecules on MM.1S cells; experiment: BCMA molecule distribution on MM.1S cells by dSTORM; assay type: cell-based, human; settings: vs untreated
Source text: Representative photographs of BCMA molecule distribution on untreated and ATRA-treated MM.1S cells visualized by direct stochastic optical reconstruction microscopy (dSTORM).

BCMA RNA levels in MM.1S = BCMA RNA levels in MM.1S by qRT-PCR; assay type: cell-based, human; settings: 50 nM ATRA, 48 hours, qPCR
Description: (§2) BCMA RNA levels in MM.1S (n=4) and OPM-2 (n=3) by quantitative reverse transcription PCR (qRT-PCR) assay was quantified after incubation with increasing doses of ATRA for 48 hours. Depicted are mean values+SD.
(§3) Total RNAs were extracted with RNeasy Mini Kit (Qiagen, Hilden, Germany) according to the manufacturer's protocol. Reverse transcription-quantitative polymerase chain reaction (RT-qPCR) analysis of BCMA was performed with 1 μg of total RNA and SuperScript™ II Reverse Transcriptase (Thermo Fisher Scientific, Inc Massachusetts). The quality and integrity of the RNA was verified by a Bioanalyzer 2100 (Agilent Technologies, Santa Clara, CA). The primer sequences used were as follows: BCMA forward primer, 5′-TGTTCTTCTAATACTCCTCCTCT-3′ (SEQ ID NO: 25) and reverse primer, 5′-AACTCGTCCTTTAATGGTTC-3′ (SEQ ID NO: 26). […] RT-qPCR was performed in a 7900HT Real-time PCR System (Thermo Fisher Scientific, Inc Massachusetts) using Quantitec SYBR green Kit (Qiagen, Hilden, Germany) in a 7900 HT Fast Real Time PCR System (Applied Biosystems, Foster City, CA). […] The threshold cycle for each sample was selected from the linear range and converted to a starting quantity by interpolation from a standard curve generated on the same plate for each set of primers. […]

BCMA RNA levels in OPM-2 = BCMA RNA levels in OPM-2 by qRT-PCR; assay type: cell-based, human; settings: 50 nM ATRA, 48 hours, qPCR
Description: as §2, §3

[3] = tested on: BCMA CD4+ and CD8+ CAR T-cells; experiment: Viability of BCMA-CAR T-cells after incubation with ATRA; assay type: cell-based, human; settings: increasing doses of ATRA, 72 hours; 7-AAD- T cells
Description: Viability of BCMA CD4+ and CD8+ CAR T-cells after incubation with increasing doses of ATRA for 72 hours determined by flow cytometry. […] Data are presented as mean values+SD (n=3).

[4] = tested on: EGFRt_BCMA-CAR transgene expression of BCMA CD4+ and CD8+ CAR T-cells; experiment: EGFRt_BCMA-CAR transgene expression of BCMA-CAR T-cells after incubation with ATRA; assay type: cell-based, human; settings: increasing doses of ATRA, 72 hours; EGFRt+ T cells
Description: EGFRt_BCMA-CAR transgene expression of BCMA CD4+ and CD8+ CAR T-cells after incubation with increasing doses of ATRA for 72 hours determined by flow cytometry. […] Data are presented as mean values+SD (n=3).

MM.1S myeloma cells = experiment: Cytolytic activity of CD8+ BCMA-CAR T-cells against pretreated MM.1S, bioluminescence-based assay; assay type: cell-based, human; settings: MM.1S pretreated 72 hours with 100 nM ATRA and/or 0.01 uM GSI; 4 h co-incubation
Description: Myeloma cell lines were incubated with 100 nM ATRA and/or 0.01 uM GSI for 72 hours or were left untreated. Cytolytic activity of CD8^+ BCMA-CAR T-cells was determined in a bioluminescence-based assay after 4 h of co-incubation with target cells. Assay was performed in triplicate wells with 5,000 target cells per well. Data are presented as mean values+SD of n=4 independent experiments.
(§4) Cytolytic activity was analyzed in a bioluminescence-based assay using firefly-luciferase (ffluc)-transduced target cells. Proliferation was measured by dilution of CFSE proliferation dye by flow cytometry. Therefore, CFSE-labeled CAR T-cells were incubated with target cells for 72 h at a 4:1 effector to target cell ratio. IFNγ and IL-2 were measured by ELISA (Biolegend, Koblenz, Germany) in supernatants obtained after a 20 hour co-culture of T-cells with target cells (effector:target ratio=4:1).

[5] = tested on: BCMA-CAR T-cells co-incubated with MM.1S; experiment: Proliferation of CFSE-labeled BCMA-CAR T-cells after stimulation with pretreated MM.1S; assay type: cell-based, human; settings: MM.1S pretreated 72 hours with 100 nM ATRA and/or 0.01 uM GSI; CFSE after three days
Description: MM.1S were incubated with 100 nM ATRA and/or 0.01 uM GSI for 72 hours or were left untreated. Afterwards, CFSE-labeled BCMA-CAR T-cells were co-incubated with these target cells. Proliferative capacity of BCMA-CAR T-cells was determined after three days by measuring the reduction of CFSE-labeling in effector cells. Data are presented as mean values+SD of n=3 independent experiments.
as §4

[6] = tested on: BCMA-CAR T-cells co-incubated with MM.1S; experiment: Cytokine release of BCMA-CAR T-cells after stimulation with pretreated MM.1S, ELISA; assay type: cell-based, human; settings: MM.1S pretreated 72 hours with 100 nM ATRA and/or 0.01 uM GSI, 20 hours co-incubation
Description: MM.1S were incubated with 100 nM ATRA and/or 0.01 uM GSI for 72 hours or were left untreated. Afterwards, BCMA-CAR T-cells were co-incubated with these target cells for 20 hours. Cytokine release of BCMA-CAR T-cells was determined in the supernatant by ELISA. Assay was performed in triplicate wells. Data are presented as mean values+SD of n=3 independent experiments.
as §4

BCMA expression on MM.1S [7] = experiment: BCMA expression on MM.1S from bone marrow of ATRA-treated NSG mice; assay type: in vivo; settings: NSG/MM1.S; ATRA 30 mg/kg i.p. every day, 4 days; P=0.002
Description: NSG mice were inoculated with MM.1S cells. After twelve days, mice were i.p. injected with 30 mg/kg ATRA for 4 days. BCMA-expression on MM.1S cells obtained from bone marrow of untreated and ATRA-treated mice was analysed by flow cytometry.
The University of Wurzburg Institutional Animal Care and Use Committee approved all mouse experiments. Six- to eight-week old female NSG (NOD-scid IL2rynull) mice were obtained from Charles River and inoculated by tail vein injection with 2×10^6 MM.1S/ffluc_GFP at day 0 and randomly allocated to ATRA-treatment and control group. ATRA (Sigma Aldrich, Darmstadt, Germany) was formulated in corn oil and administered by intraperitoneal (i.p) injection (30 mg/kg) for four days, starting twelve days after tumor inoculation.
This encouraged experiments in a murine xenograft model of myeloma (NSG/MM1.S). In a first set of experiments, n=6 mice were inoculated with MM1.S cells (2×10^6 cells given i.v. by tail vein injection) for 12 days to establish systemic myeloma, and then administered a 4-day treatment course with either ATRA (n=3 mice; 30 mg/kg given i.p. every day) or solvent control (n=3 mice). The following day, mice were sacrificed, MM.1S myeloma cells were isolated from bone marrow and BCMA expression analyzed by flow cytometry. […] The in vivo upregulation of BCMA after GSI treatment was shown by Pont et. al. in 2019^40.

[8] = tested on: BCMA expression on NCI-H929; experiment: BCMA expression on NCI-H929 by flow cytometry after ATRA treatment
[9] = tested on: BCMA expression on primary myeloma cells; experiment: BCMA expression on primary myeloma cells by flow cytometry after ATRA treatment
[10] = deltaMFI at baseline normalized to 1, 72 hours

CC1=C(/C=C/C(C)=C/C=C/C(C)=C/C(=O)O)C(C)(C)CCC1 [ATRA, all-trans retinoic acid]
time for BCMA expression to return to baseline levels upon discontinuation of ATRA treatment (BCMA expression on MM.1S [1]): ≤ 72 h
BCMA expression when ATRA treatment was recommenced (BCMA expression on MM.1S [1]; 72 hours after re-exposition): increased again with the same amplitude
BCMA expression, deltaMFI (BCMA expression on MM.1S [1]; ATRA (50 nM per FIG. 1) for 72 hours, untreated deltaMFI 1,098): 2,709
relative increase in BCMA expression after ATRA treatment (BCMA expression on MM.1S [1]; [10]): 1.9 fold
time for BCMA expression to return to baseline levels upon discontinuation of ATRA treatment (BCMA expression on OPM-2): ≤ 72 h
BCMA expression when ATRA treatment was recommenced (BCMA expression on OPM-2; 72 hours after re-exposition): increased again with the same amplitude
BCMA expression, deltaMFI (BCMA expression on OPM-2; ATRA (50 nM per FIG. 1) for 72 hours, untreated deltaMFI 3,558): 7,358
relative increase in BCMA expression after ATRA treatment (BCMA expression on OPM-2; [10]): 1.9 fold
BCMA surface molecules by dSTORM after ATRA treatment [2]: increase of BCMA surface molecules
relative increase in BCMA transcripts (BCMA RNA levels in MM.1S): 1.8 fold
relative increase in BCMA transcripts (BCMA RNA levels in OPM-2): 2.1 fold
effect on viability of BCMA-CAR T-cells [3]: no negative effect
effect on expression of the EGFRt_BCMA-CAR transgene [4]: did not diminish
cytolytic activity of BCMA-CAR T-cells against pretreated vs non-treated target cells (MM.1S myeloma cells): superior cytolysis
proliferative capacity of BCMA-CAR T-cells [5]: enhanced proliferative capacity
cytokine release of BCMA-CAR T-cells [6]: enhanced
BCMA expression on MM.1S myeloma cells from bone marrow vs control mice (BCMA expression on MM.1S [7]): Significantly higher BCMA expression
time for BCMA expression to return to baseline levels upon discontinuation of ATRA treatment [8]: ≤ 72 h
BCMA expression when ATRA treatment was recommenced ([8]; 72 hours after re-exposition): increased again with the same amplitude
BCMA expression, deltaMFI ([8]; ATRA (50 nM per FIG. 1) for 72 hours, untreated deltaMFI 9,883): 13,891
relative increase in BCMA expression after ATRA treatment [8, 10]: 1.7 fold
BCMA expression once exposure to ATRA was discontinued ([9]; 100 nM ATRA, 24 hours after removal): declined to baseline levels
increase in deltaMFI for BCMA expression, average ([9]; 100 nM ATRA, 72 hours): 1.6 ×
BCMA expression upon re-exposure to ATRA ([9]; 72 hours after re-exposition): increased again
BCMA expression by flow cytometry after ATRA ([9]; n=5 patients, 72 hours, 100 nM P=0.04, 50 nM P=0.006, 25 nM P=0.04): significant increase

Source: patent publication US20230346734A1, “COMBINATION THERAPY OF ATRA OR OTHER RETINOIDS WITH IMMUNOTHERAPEUTIC AGENTS BINDING TO BCMA” (JULIUS-MAXIMILIANS-UNIVERSITÄT WÜRZBURG, priority 2020, published 2023)
